This passage reports IC50 results from patent US7511159B2, “Azetidine ring compounds and drugs comprising the same” (Ono Pharmaceutical Co., Ltd., priority 2003, dated 2009).

pIC50: −log10 of the molar value.

This assay has as its target T1, human EDG-5 (Homo sapiens, UniProt O95136).
T1 construct: expressed in transfected cells; host or cells: Chinese hamster ovary (CHO) cells
The experiment in a line: Evaluation of antagonistic activity for EDG-5 by monitoring the concentration change of intracellular calcium ion. It counts as cell-based. The following applies: CHO cells overexpressing human EDG-5 gene, S1P 100 nM stimulation, Fura2, read-out: IC50 value (concentration showing an inhibition rate of 50%). The protocol:
Evaluation of Antagonistic Activity for EDG-5 by Monitoring the Concentration Change of Intracellular Calcium Ion
Chinese hamster ovary (CHO) cells in which human EDG-5 gene was overexpressed were cultured in Ham's F12 medium (GIBCO BRL) containing 10% FBS (fetal bovine serum), penicillin/streptomycin. and blasticidin (5 μg/mL). Thus cultured cells were incubated in a Fura2 (5 μM)-AM solution [Ham's F12 medium containing FBS (10%), HEPES buffer (20 mM, pH7.4), and probenecid (2.5 mM)] at 37° C. for 60 minutes. Then the cells were washed once with a Hanks' solution (2.5 mM) containing probenecid and immersed into the Hanks' solution. A plate was set on a fluorescent drug screening system, and the concentration of intracellular calcium ion was measured for 30 seconds with no stimulation. A solution of a compound (dimethyl sulfoxide (DMSO) solution of 1 nM to 10 μM at the final concentration) to be tested was added. After lapse of 5 minutes, S1P (final concentration: 100 nM) was added, the concentration of intracellular calcium ion before and after the addition of SiP was measured every 3 seconds (excitation wave length: 340 nm and 380 nm; fluorescent wave length: 500 nm). […]

T1 sequence (O95136 whole entry): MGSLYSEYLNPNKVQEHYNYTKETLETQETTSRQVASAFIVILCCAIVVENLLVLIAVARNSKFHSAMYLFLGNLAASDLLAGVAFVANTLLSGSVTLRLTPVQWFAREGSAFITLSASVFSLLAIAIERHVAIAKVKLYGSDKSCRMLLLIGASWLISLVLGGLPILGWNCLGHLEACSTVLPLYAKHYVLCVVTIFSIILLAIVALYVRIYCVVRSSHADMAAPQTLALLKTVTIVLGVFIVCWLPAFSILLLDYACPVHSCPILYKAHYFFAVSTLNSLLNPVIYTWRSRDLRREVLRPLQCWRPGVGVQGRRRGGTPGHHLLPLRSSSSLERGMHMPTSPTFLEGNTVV

For `CCN(c1ccccc1)C1CN(C(=O)Nc2cc(C(F)(F)F)cc(C(F)(F)F)c2)C1` [Example 3(18), N-[3,5-Bis(trifluoromethyl)phenyl]-3-[ethyl(phenyl)amino]azetidine-1-carboxamide], the pIC50 was 6.02.
